Measured values: the supplement of paper PMC10307832

Columns and labels:
Experiment in all cases: relative viability (nuclei count vs DMSO), 5 days (fraction); higher = more cells survive
[1] = compound: CCC1=CN=CN=C1N2CCN(CC2)CC3=NC4=C(N3)C=C(C=C4)C(F)(F)F
In short: (§1)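 Cells of lung cancer lines were placed in 1536-well plates and kept overnight at 37 °C. Pinning then delivered five library-drug doses (not always all listed), spaced by √10, onto plates anchored with vehicle, and the cells were left 5 days without changing medium. One step fixed, permeabilised and stained them with Hoechst, and MetaXpress counted nuclei in 4× images. Viability, as a median over plates, is treated-well nuclei divided by vehicle-well nuclei, with acceptance only at control CV below 25% and at least one doubling.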

[2] = compound: CCn1c(-c2nonc2N)nc2cnc(Oc3cccc(NC(=O)c4ccc(OCCN5CCOCC5)cc4)c3)cc21
In short: as §1

Mirin = compound: N=C1NC(=O)/C(=C/c2ccc(O)cc2)S1 [Mirin]
In short: as §1

[3] = compound: CCn1c(-c2nonc2N)nc2cnc(Oc3cccc(NC(=O)c4ccc(OCCN5CCOCC5)cc4)c3)cc21 + C[C@@H](Oc1cc(-c2cnn(C3CCNCC3)c2)cnc1N)c1c(Cl)ccc(F)c1Cl [Crizotinib] (partner 1 µM)
In short: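 Lung cancer cell lines were seeded in 1536-well plates and dosed by pin tool the next day, with either a single drug or a fixed anchor-drug dose combined with five library-drug doses (not always all listed) spaced in √10 steps. Five days later, one step fixed the cells and stained their nuclei (final 0.05% Triton X-100, 1% formaldehyde, 1 ug/ml Hoechst), and nuclei were counted on 4× images. Relative viability is the nuclei count in treated wells divided by the count in vehicle wells, and each value is the median of duplicate plates.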

Row | Cell Line | relative viability ([1]; 0.04 µM) | relative viability ([1]; 0.1265 µM) | relative viability ([1]; 0.4 µM) | relative viability ([1]; 1.265 µM) | relative viability ([1]; 4 µM) | relative viability ([2]; 0.04 µM) | relative viability ([2]; 0.1265 µM) | relative viability ([2]; 0.4 µM) | relative viability ([2]; 1.265 µM) | relative viability ([2]; 4 µM) | relative viability (Mirin; 0.25 µM) | relative viability (Mirin; 0.7906 µM) | relative viability (Mirin; 2.5 µM) | relative viability (Mirin; 7.906 µM) | relative viability (Mirin; 25 µM) | relative viability ([3]; first compound 0.04 µM) | relative viability ([3]; first compound 0.1265 µM) | relative viability ([3]; first compound 0.4 µM) | relative viability ([3]; first compound 1.265 µM) | relative viability ([3]; first compound 4 µM)
1 | NCI-H2347 | 1.05 | 0.986 | 1.04 | 0.827 | 1.09 | 1.1 | 1.02 | 0.878 | 0.504 | 0.546 | 0.962 | 0.972 | 1.08 | 0.957 | 1.03 | 0.602 | 0.69 | 0.589 | 0.484 | 0.39
2 | NCI-H2405 | 0.968 | 0.989 | 0.981 |  | 1.11 | 1.05 | 0.668 | 0.254 | 0.318 | 0.327 | 0.967 | 0.928 | 0.974 | 0.968 | 0.997 | 0.964 | 0.782 | 0.655 | 0.257 | 0.285
3 | NCI-H3122 | 1.05 | 1.01 | 0.964 | 1.03 | 1.1 | 1.01 | 0.978 | 0.924 | 0.755 | 0.695 | 1.03 | 0.953 | 1.02 | 1.08 | 1.1 | 0.266 | 0.298 | 0.342 | 0.318 | 0.346
4 | PC-3 [JPC-3] | 1.01 | 0.947 | 0.965 | 1.01 | 1.02 | 1.02 | 0.976 | 0.982 | 0.947 | 0.926 | 1.07 | 1.04 | 1.01 | 1.12 | 1.2 | 0.961 | 0.96 | 1.04 | 0.967 | 0.939
5 | PC-14 | 0.97 | 0.919 | 0.99 | 0.979 | 1 | 1.08 | 0.834 | 0.809 | 0.729 | 0.653 | 0.975 | 0.906 | 1.03 | 1.05 | 1.13 | 0.874 | 0.884 | 0.87 | 0.683 | 0.7
6 | RERF-LC-KJ | 0.956 | 0.968 | 1.01 | 0.924 | 0.991 | 1.02 | 0.971 | 0.872 | 0.619 | 0.637 | 1.07 | 1.08 | 1.01 | 1.04 | 1 | 0.886 | 0.822 | 0.82 | 0.535 | 0.36
7 | SK-LU-1 | 1.1 | 0.969 | 0.967 | 0.808 | 0.994 | 1.16 | 0.795 | 0.672 | 0.452 | 0.566 | 1.14 | 1.07 | 1.07 | 0.809 | 0.905 | 1.12 | 0.744 | 0.61 | 0.46 | 0.355
8 | SK-MES-1 | 1.04 | 0.975 | 0.983 | 1 | 0.985 | 1.1 | 0.915 | 0.82 | 0.709 | 0.746 | 1.02 | 1.1 | 1.05 | 1.12 | 1.28 | 1.12 | 0.883 | 0.804 | 0.742 | 0.645
9 | SW 1573 | 0.925 | 1.08 | 0.912 | 0.858 | 0.941 | 1.1 | 0.992 | 0.74 | 0.488 | 0.338 | 0.986 | 0.825 | 0.986 | 0.968 | 0.779 | 0.874 | 0.704 | 0.707 | 0.519 | 0.391
